# Key:
# Assay in all cases: relative viability (nuclei count vs DMSO), 5 days (fraction); higher = more cells survive
# [1] = compound: O=C(CCCCCCNC(=O)c1cnc(N(c2ccccc2)c2ccccc2)nc1)NO [Ricolinostat] + CS(=O)(=O)N1CCN(Cc2cc3nc(-c4cccc5[nH]ncc45)nc(N4CCOCC4)c3s2)CC1 [Pictilisib] (partner 1 µM)
# Procedure, shortened: (§1)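 Lung cancer cell lines in 1536-well plates got either a single drug or a fixed anchor-drug dose together with five library-drug doses (not always all listed) in √10 steps, by pin tool, on the day after seeding. Nuclei were counted after 5 days, and relative viability is the treated-to-vehicle ratio of nuclei counts. Values are medians of duplicate plates.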
# [2] = compound: C1=CC=C(C(=C1)C2=CC=C(C=C2)C3=CSC4=C3C(=C(C(=O)N4)C#N)O)O + CS(=O)(=O)N1CCN(Cc2cc3nc(-c4cccc5[nH]ncc45)nc(N4CCOCC4)c3s2)CC1 [Pictilisib] (partner 1 µM)
# Procedure, shortened: as §1
# TGX 221 + Pictilisib = compound: CC1=CN2C(=O)C=C(N=C2C(=C1)C(C)NC3=CC=CC=C3)N4CCOCC4 [TGX 221] + CS(=O)(=O)N1CCN(Cc2cc3nc(-c4cccc5[nH]ncc45)nc(N4CCOCC4)c3s2)CC1 [Pictilisib] (partner 1 µM)
# Procedure, shortened: as §1
# [3] = compound: C1=CC=C(C(=C1)C2=CC=C(C=C2)C3=CSC4=C3C(=C(C(=O)N4)C#N)O)O + Nc1ncn([C@H]2C[C@H](O)[C@@H](CO)O2)c(=O)n1 [Decitabine] (partner 2 µM)
# Procedure, shortened: as §1
Cell Line,relative viability ([1]; first compound 0.08 µM),relative viability ([1]; first compound 0.253 µM),relative viability ([1]; first compound 0.8 µM),relative viability ([1]; first compound 2.53 µM),relative viability ([2]; first compound 0.08 µM),relative viability ([2]; first compound 0.253 µM),relative viability ([2]; first compound 0.8 µM),relative viability ([2]; first compound 2.53 µM),relative viability ([2]; first compound 8 µM),relative viability (TGX 221 + Pictilisib; first compound 0.253 µM),relative viability (TGX 221 + Pictilisib; first compound 0.8 µM),relative viability (TGX 221 + Pictilisib; first compound 2.53 µM),relative viability (TGX 221 + Pictilisib; first compound 8 µM),relative viability ([3]; first compound 0.08 µM),relative viability ([3]; first compound 0.253 µM),relative viability ([3]; first compound 0.8 µM),relative viability ([3]; first compound 2.53 µM),relative viability ([3]; first compound 8 µM),relative viability (TGX 221 + Pictilisib; first compound 0.08 µM)
201T,0.586,0.748,0.727,0.606,0.646,0.697,0.652,0.584,0.846,0.715,0.689,0.63,0.621,0.844,0.826,0.875,0.894,0.916,–
A549,0.405,0.517,0.471,0.312,0.322,0.552,0.539,0.516,0.422,0.496,0.46,0.494,0.396,–,0.315,0.207,0.306,0.211,0.485
A-427,0.626,0.722,0.781,0.757,0.577,0.751,0.683,0.75,0.886,0.7,0.679,0.676,0.676,0.517,0.595,0.567,0.563,0.656,0.613
ABC-1,0.541,0.731,0.606,0.446,0.678,0.881,0.949,0.59,0.548,0.491,0.94,0.766,0.704,1.4,1.03,1.03,0.899,1.07,0.677
BEN,0.462,0.532,0.425,0.354,0.547,0.597,0.437,0.547,0.428,0.519,0.521,0.503,0.456,0.605,0.745,0.771,0.717,0.653,0.552
CAL-12T,0.339,0.479,0.344,0.388,–,0.446,0.359,0.337,0.367,0.415,0.376,–,0.519,–,–,–,–,–,–
COR-L23,0.576,0.737,0.697,0.326,0.757,0.581,0.813,0.728,0.575,0.713,0.757,0.771,0.892,0.469,0.54,0.429,0.431,0.417,0.746
COR-L 105,0.367,0.412,0.485,0.279,0.387,0.525,0.428,0.417,0.433,0.412,0.424,0.469,0.421,0.715,0.684,0.793,0.664,0.564,0.458
Calu-6,0.898,0.91,0.795,0.648,0.959,0.967,1.05,0.988,0.812,0.889,0.86,0.922,0.896,–,–,–,–,–,0.953
ChaGo-K-1,0.916,0.676,0.616,0.625,0.387,0.634,0.554,0.747,0.829,0.644,0.683,0.47,0.966,0.507,0.58,0.587,0.535,0.506,0.548
EBC-1,0.372,0.403,0.26,0.165,0.353,0.429,0.346,0.343,0.368,0.366,0.369,0.291,0.304,–,–,–,–,–,0.331
EKVX,–,0.444,0.456,0.378,0.457,0.482,0.376,0.425,0.367,0.458,0.448,0.39,0.404,0.396,0.412,0.857,0.695,0.326,0.337
EMC-BAC-2,0.433,0.578,0.558,0.442,0.526,0.516,0.562,0.544,0.477,0.523,0.535,0.471,0.535,0.893,–,0.979,0.967,0.933,0.535
EPLC-272H,–,0.343,0.285,0.355,–,0.251,0.264,0.299,0.292,0.295,0.369,–,0.339,0.385,–,0.329,0.356,0.35,0.259
H3255,0.387,0.418,0.484,0.484,0.483,0.514,0.447,0.536,0.467,0.445,0.45,0.492,0.539,0.481,0.618,–,0.644,0.585,0.466
HARA,0.208,0.481,0.503,0.203,–,0.668,0.449,0.392,0.442,0.469,0.372,0.361,0.585,0.592,0.769,0.596,0.548,0.459,0.538
HCC-15,0.647,0.79,0.779,0.617,0.777,0.767,0.734,0.74,0.777,0.706,0.784,0.71,0.782,0.444,0.671,0.625,0.814,0.494,0.806

Cell Line,relative viability ([1]; first compound 0.08 µM),relative viability ([1]; first compound 0.253 µM),relative viability ([1]; first compound 0.8 µM),relative viability ([1]; first compound 2.53 µM),relative viability ([2]; first compound 0.08 µM),relative viability ([2]; first compound 0.253 µM),relative viability ([2]; first compound 0.8 µM),relative viability ([2]; first compound 2.53 µM),relative viability ([2]; first compound 8 µM),relative viability (TGX 221 + Pictilisib; first compound 0.253 µM),relative viability (TGX 221 + Pictilisib; first compound 0.8 µM),relative viability (TGX 221 + Pictilisib; first compound 2.53 µM),relative viability (TGX 221 + Pictilisib; first compound 8 µM),relative viability ([3]; first compound 0.08 µM),relative viability ([3]; first compound 0.253 µM),relative viability ([3]; first compound 0.8 µM),relative viability ([3]; first compound 2.53 µM),relative viability ([3]; first compound 8 µM),relative viability (TGX 221 + Pictilisib; first compound 0.08 µM)
HCC-44,0.551,0.673,0.635,0.424,0.549,0.717,0.601,0.556,0.605,0.571,0.615,0.555,0.541,1.01,1.05,0.985,0.895,0.934,0.648
HCC-78,–,0.196,0.163,0.184,0.169,0.286,0.205,0.192,0.196,0.179,–,0.231,0.231,0.75,0.82,0.655,0.808,0.642,0.242
HCC-366,0.133,0.17,0.151,0.198,0.196,0.154,0.0996,0.174,0.164,0.152,0.102,0.147,0.0862,–,0.46,0.343,0.332,0.358,0.103
HCC-827,0.956,0.965,0.948,1.09,1.11,1.05,0.819,0.996,0.986,0.979,1.09,0.896,0.732,0.318,0.361,0.277,0.351,0.313,1.02
HOP-62,0.624,0.749,0.624,0.33,0.774,0.773,0.673,0.837,0.434,0.742,0.544,0.682,0.689,0.218,0.238,0.221,0.238,0.211,0.694
IA-LM,0.234,0.35,0.308,0.316,0.273,0.452,0.287,0.369,0.238,–,0.423,0.288,0.412,–,–,–,–,–,0.276
LC-2-ad,0.4,0.546,0.433,0.236,0.42,0.537,0.374,0.473,0.355,–,0.444,0.491,0.473,0.743,0.865,0.832,0.777,0.791,0.453
LCLC-97TM1,0.205,0.181,0.168,0.141,0.168,0.284,0.198,0.2,0.176,0.196,0.165,0.164,0.188,0.237,0.267,0.226,0.252,0.226,0.197
LCLC-103H,0.456,0.47,0.583,0.547,0.544,0.664,0.541,0.554,0.576,0.592,0.678,0.577,0.609,0.799,0.734,0.695,0.697,0.79,0.566
NCI-H522,–,–,–,–,–,–,–,–,–,–,–,–,–,0.739,0.772,0.674,0.628,0.671,–
NCI-H1299,0.77,0.796,0.784,0.603,1.04,0.858,0.826,0.771,0.594,0.728,0.787,0.654,0.617,–,–,–,–,–,0.74
NCI-H1563,0.634,0.674,0.627,0.732,0.629,0.655,0.689,0.703,0.637,0.622,0.573,0.634,0.638,–,–,–,–,–,0.651
NCI-H1648,–,–,–,–,–,–,–,–,–,–,–,–,–,–,0.537,0.493,0.478,0.458,–
NCI-H1703,–,0.253,0.247,0.275,0.236,0.292,0.25,0.259,0.24,0.264,0.251,0.202,0.234,–,–,–,–,–,0.234
NCI-H2228,0.309,0.407,0.355,0.24,0.326,0.4,0.479,0.365,0.344,0.452,0.448,0.282,0.314,–,–,–,–,–,0.348
NCI-H2342,–,–,–,–,–,–,–,–,–,–,–,–,–,0.826,0.774,0.724,0.729,0.604,–
SW 900,–,–,–,–,–,–,–,–,–,–,–,–,–,–,0.452,0.467,0.459,0.446,–

# — the supplement of paper PMC10307832
